The values below come from EPA's aquatic toxicity sets.

Molecules are shown by their SMILES.

This data set concerns Tetrahymena pyriformis. Description: 48 h IGC50 (-log10 mol/L); higher = more toxic.
With `CCC(C)(C)O`, the “48 h IGC50 (-log10 mol/L)” value was 1.83.
Next, `Cc1cc([N+](=O)[O-])ccc1Br`: 4.16.
Next, `O=[N+]([O-])c1cc(Cl)cc(Cl)c1O`: 4.75; `CCCC(CO)CCC`: 3.13.
The value for `O=Cc1ccc(Cl)s1` was 3.62; that for `CC(C)COC=O` was 1.69; that for `C=COC(=O)CCCCC` was 3.08.
Consider `Cc1cccc(C)c1N=C=S`, for which the “48 h IGC50 (-log10 mol/L)” value is 4.5.
The value for `Oc1cc(O)c(Cl)cc1Cl` was 3.97; that for `Cc1ccc(O)c(Br)c1` was 3.6.
On to `COC(=O)CCC(=O)OC`, for which the “48 h IGC50 (-log10 mol/L)” value was 1.94.
Regarding `COc1cc(O)cc(Cl)c1`, the “48 h IGC50 (-log10 mol/L)” value stood at 3.76.
The value for `CCCCCC(C)O` (stereo not drawn) was 2.53; that for `CCCCOC(=O)/C=C/c1ccccc1` was 4.53; that for `CCCI` was 2.61.
As for `CCCCC(N)CO` (stereo not drawn), the “48 h IGC50 (-log10 mol/L)” value was found to be 2.42.
The value for `Cc1cccc(CO)c1` was 2.76.
Next, `O=[N+]([O-])/C=C/c1ccco1`: 5.04.
With `C=CCC(C)O` (stereo not drawn), the “48 h IGC50 (-log10 mol/L)” value was determined as 1.48.
With `CN(C)Cc1cc(CN(C)C)c(O)c(CN(C)C)c1`, the “48 h IGC50 (-log10 mol/L)” value amounted to 2.48.
Turning to `C=COC(=O)c1ccc(C(C)(C)C)cc1`, the “48 h IGC50 (-log10 mol/L)” value was determined as 4.57.
Consider `CC(C)C#N`, for which the “48 h IGC50 (-log10 mol/L)” value stood at 1.38.
The value for `O=[N+]([O-])c1ccc(Cl)cc1Cl` was 3.99; that for `CCc1ccc(C=O)cc1` was 3.29; that for `C/C=C/C=C/C=O` was 3.74.
As to `CCCOC(=O)c1ccccc1`, the “48 h IGC50 (-log10 mol/L)” value worked out at 3.42.
Next, `CC(C)c1cccc(O)c1`: 3.61; `CCCCCC#N`: 2.62; `CC(C)(N)CO`: 1.07.
Regarding `N#CCCC#N`, the “48 h IGC50 (-log10 mol/L)” value was determined as 1.18.
The value for `Nc1ccc(O)c(N)c1` was 3.13.
Turning to `Nc1c([N+](=O)[O-])cccc1[N+](=O)[O-]`, the “48 h IGC50 (-log10 mol/L)” value was 3.84.
Next, `C=COC(=O)CCCCCCC`: 2.7.
The value for `CC(C)(CO)CCl` was 2.22.
The value for `C=CCSc1ccccc1` was 3.69; that for `COC(=O)CCCCCCC(=O)OC` was 3.3.
Regarding `ClCC=CCCl`, the “48 h IGC50 (-log10 mol/L)” value amounted to 4.02.
Next, `O=[N+]([O-])c1cc(F)ccc1F`: 3.33; `Cc1ccc(O)c([N+](=O)[O-])n1`: 3.39.
The value for `CC1CCCCC1=O` (stereo not drawn) was 2.19; that for `COC(=O)CC(=O)OC` was 1.71; that for `NC(=O)CCl` was 3.04.
Next, `CC(=O)C(Cl)Cl`: 3.64; `O=[N+]([O-])c1ccc(Br)nc1`: 4.07.
`CCCCCCCCCC(=O)O`: the “48 h IGC50 (-log10 mol/L)” value amounted to 3.51.
Next, `CCOC(=O)C(C)Cl` (stereo not drawn): 2.57.
The value for `Brc1ccccn1` was 2.46; that for `Cc1ccccc1C(=O)c1ccccc1` was 4.37; that for `CCOC(=O)CCCCCCC(=O)OCC` was 3.7.
The value for `O=C(CBr)C(=O)CBr` was 4.76.
Consider `COC(=O)CCCC(=O)OC`, for which the “48 h IGC50 (-log10 mol/L)” value amounted to 1.83.
Take `COC(=O)c1ccc(OC)cc1O`: the “48 h IGC50 (-log10 mol/L)” value worked out at 3.62.
Consider `COC(=O)CCCBr`, for which the “48 h IGC50 (-log10 mol/L)” value amounted to 3.07.
The value for `CCCCCCC#CC(=O)OCC` was 4.38; that for `OCCBr` was 2.15.
The value for `N#Cc1cccc(O)c1` was 2.94.
Next, `O=Cc1cccc([N+](=O)[O-])c1O`: 3.87; `O=[N+]([O-])c1cc(Br)ccc1Br`: 4.37.
With `C=CC(=O)OCCCC`, the “48 h IGC50 (-log10 mol/L)” value was found to be 3.52.
Next, `CCCCCCCCC(=O)O`: 3.35.
On to `CCCCC/C=C/C(=O)OC`, for which the “48 h IGC50 (-log10 mol/L)” value is 3.77.
`O=[N+]([O-])c1c(F)c(F)c(F)c(F)c1F`: the “48 h IGC50 (-log10 mol/L)” value came out at 5.43.
On to `Nc1c(Br)cc(Br)cc1[N+](=O)[O-]`, for which the “48 h IGC50 (-log10 mol/L)” value turned out to be 4.62.
For the compound `C=CCI`, the “48 h IGC50 (-log10 mol/L)” value amounted to 3.8.
Take `O=C(c1ccccc1)c1ccccc1`: the “48 h IGC50 (-log10 mol/L)” value came out at 3.87.
Next, `C#CC(C)(O)CCC` (stereo not drawn): 2.1; `O=C(O)c1ccccc1Br`: 2.53; `Clc1cccc(Br)c1Cl`: 4.3.
The value for `Cc1cc(C)c(O)c(C)c1` was 3.42; that for `C=CC(O)CC` (stereo not drawn) was 1.65.
Next, `CCOC(=O)CCCBr`: 2.97.
With `N#CSCc1ccccc1`, the “48 h IGC50 (-log10 mol/L)” value is 4.05.
On to `COc1cc(C=O)cc(O)c1OC`, for which the “48 h IGC50 (-log10 mol/L)” value was 2.61.
The value for `CCCOS(=O)OCCC` was 3.09; that for `Cc1ccc(N)c(Cl)c1` was 3.18.
Next, `Cc1cc(O)ccc1O`: 4.86; `CCCCCCCCCC(C)O` (stereo not drawn): 4.58.
The value for `Nc1c(Br)cc(Cl)cc1Br` was 4.52; that for `Cc1ccc(N)cc1Cl` was 3.39.
`OCCc1ccc(Cl)cc1`: the “48 h IGC50 (-log10 mol/L)” value came to 3.32.
Next, `O=Cc1ccccn1`: 2.86.
The value for `Cc1c(O)c(Br)c(Br)c(Br)c1Br` was 5.57; that for `CCCCC(=O)OCC` was 2.64; that for `Cc1cc2ccccc2o1` was 3.62.
The value for `NC(=O)c1ccccc1[N+](=O)[O-]` was 2.28; that for `CC(C)(C)C(=O)O` was 2.75; that for `CCCOC=O` was 1.98.
Consider `O=C(CBr)c1ccccc1`, for which the “48 h IGC50 (-log10 mol/L)” value turned out to be 5.82.
Next, `CCCCCCCCC(=O)OC`: 4.04; `N#CCC(=O)c1ccco1`: 3.3; `O=C(O)CCC(=O)O`: 2.06.
The value for `Nc1cccc(O)c1` was 2.48; that for `CCCSc1ccccc1` was 3.86; that for `CCN(CC)CCO` was 1.5.
The value for `CCC=CCCC=CC=O` was 4.34; that for `ClCCc1ccccc1` was 3.17; that for `CCCCCOC(=O)CC` was 2.96.
Turning to `C=CCOC(=O)CCCCCCCCC`, the “48 h IGC50 (-log10 mol/L)” value amounted to 3.48.
Next, `N#Cc1c(F)c(F)c(C#N)c(F)c1F`: 5.55; `CCCC#CC(=O)OC`: 3.76.
Next, `CC(Cl)C(N)=O` (stereo not drawn): 1.56.
Turning to `Cc1ccc(C=O)c2ccccc12`, the “48 h IGC50 (-log10 mol/L)” value amounted to 4.12.
Next, `O=C1CCCO1`: 1.28; `CC(=O)c1ccc(C#N)cc1`: 2.63; `Cc1cc(N)c([N+](=O)[O-])cc1C`: 3.45.
Take `O=C(c1ccccc1)c1ccc(O)c(O)c1O`: the “48 h IGC50 (-log10 mol/L)” value stood at 3.88.
Turning to `CCOC(=O)Cc1cccnc1`, the “48 h IGC50 (-log10 mol/L)” value is 2.06.
Next, `C/C=C/C(=O)OC(C)(C)C`: 2.36.
Turning to `S=C=Nc1ccc2c(c1)CCC2`, the “48 h IGC50 (-log10 mol/L)” value came to 5.48.
Regarding `CCCC(C)O` (stereo not drawn), the “48 h IGC50 (-log10 mol/L)” value came to 1.84.
The value for `Oc1c(F)c(F)c(O)c(F)c1F` was 4.84.
Next, `CCCCCCOC(=O)c1ccccc1`: 4.94; `O=C(O)CCCCCCCCCCC(=O)O`: 2.91.
The value for `CCOC(=O)CC(C)C` was 2.28; that for `Cc1cc(C)cc(N)c1` was 2.64; that for `CC(C)OC(=O)CC#N` was 2.05.
In the case of `CC(C)CC#N`, the “48 h IGC50 (-log10 mol/L)” value came out at 2.12.
Next, `O=[N+]([O-])c1ccc(F)c(Cl)c1`: 3.8.
Take `CC(=O)NC(C)(C)C`: the “48 h IGC50 (-log10 mol/L)” value was determined as 1.84.
Next, `CCC(Br)C(=O)OC` (stereo not drawn): 4.02.
The value for `CCOC(=O)CCl` was 4.06; that for `O=[N+]([O-])c1ccc(CBr)cc1` was 5.31; that for `CC(C)COC(=O)c1ccccc1` was 3.98.
Regarding `NC(=O)CBr`, the “48 h IGC50 (-log10 mol/L)” value is 4.52.
Next, `CCCc1ccccc1N`: 3.08; `CCCCCCC#CCCO`: 4.13; `CCCCCCC#CCO`: 3.65.
Next, `OCCCBr`: 2.07.
Next, `Cc1ccnc(Cl)c1[N+](=O)[O-]`: 3.29; `Cc1ccc([N+](=O)[O-])cc1F`: 3.33.
Consider `CCC(=O)CC(=O)CC`, for which the “48 h IGC50 (-log10 mol/L)” value was 2.62.
Next, `C=COC(=O)c1ccccc1`: 3.08; `COc1cc(C=O)ccc1O`: 2.97; `O=C(CBr)Oc1ccccc1`: 5.08.
The value for `Cc1cc[nH]c(=O)c1[N+](=O)[O-]` was 2.5; that for `CC(Br)C#N` (stereo not drawn) was 3.63; that for `CCCCCCCC(C)O` (stereo not drawn) was 3.62.
The value for `N#Cc1ccccc1C(N)=O` was 2.68.
